System: Endogenous Huntingtin Protein
Assay: Endogenous Huntingtin Protein Assay (ELISA-based MSD electrochemiluminescence)
Assay type: cell-based
Conditions: Table 1
How it was run: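 Huntingtin was captured overnight at 4 °C on plates coated with 1 μg/mL MW1 (polyQ-expanded) or MAB2166 antibody and BSA-blocked. Detection used a rabbit monoclonal and then a SULFO-TAG goat anti-rabbit antibody (0.25 μg/mL, 1 h each, room temperature). Signal was read by electrochemiluminescence.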

## Cc1cn2cc(-c3ccc4nc(N(C)C5CC(C)(C)NC(C)(C)C5)sc4c3)cc2c(C)n1 [Compound 55, 6-(1,3-dimethylpyrrolo[1,2-a]pyrazin-7-yl)-N-methyl-N-(2,2,6,6-tetramethylpiperidin-4-yl)-1,3-benzothiazol-2-amine]
  IC50: ≤ 100 nM

## CN(c1nc2nnc(-c3ccc(-c4cn[nH]c4)cc3O)cc2s1)C1CCNC1 (centres unmarked) [Compound 374, 2-{6-[methyl(pyrrolidin-3-yl)amino][1,3]thiazolo[4,5-c]pyridazin-3-yl}-5-(1H-pyrazol-4-yl)phenol]
  IC50: ≤ 100 nM

## CN1CC=C(c2nc3ccc(-c4ccc5nn(C)cc5c4)cc3s2)CC1 [Compound 3, 6-(2-methyl-2H-indazol-5-yl)-2-(1-methyl-1,2,3,6-tetrahydropyridin-4-yl)-1,3-benzothiazole]
  IC50: 500 to 1000 nM

## Cc1cn2cc(-c3ccc4nc(N(C)C5CC(C)(C)NC(C)(C)C5)sc4n3)ccc2n1 [Compound 129, N-methyl-5-(2-methylimidazo[1,2-a]pyridin-6-yl)-N-(2,2,6,6-tetramethylpiperidin-4-yl)[1,3]thiazolo[5,4-b]pyridin-2-amine]
  IC50: 500 to 1000 nM

## CN(c1nc2cnc(-c3cc(C#N)c4nn(C)cc4c3)cc2s1)C1CC2(C)CCC(C)(C1)N2 [Compound 287, 5-(2-{[(1R,3s,5S)-1,5-dimethyl-8-azabicyclo[3.2.1]octan-3-yl](methyl)amino}[1,3]thiazolo[4,5-c]pyridin-6-yl)-2-methyl-2H-indazole-7-carbonitrile]
  IC50: ≤ 100 nM

## CN1CCC(Nc2nc3nnc(-c4ccc(-c5cn[nH]c5)cc4O)cc3s2)C1 (centres unmarked) [Compound 373, 2-{6-[(1-methylpyrrolidin-3-yl)amino][1,3]thiazolo[4,5-c]pyridazin-3-yl}-5-(1H-pyrazol-4-yl)phenol]
  IC50: ≤ 100 nM

## Cc1cn2cc(-c3cc(F)c4nc(C5=CCNCC5)sc4c3)nc(C)c2n1 [Compound 53, 6-[4-fluoro-2-(1,2,3,6-tetrahydropyridin-4-yl)-1,3-benzothiazol-6-yl]-2,8-dimethylimidazo[1,2-a]pyrazine]
  IC50: 100 to 500 nM

## CN(c1nc2nnc(-c3ccc(-c4cn[nH]c4)cc3O)cc2s1)[C@@H]1CNC[C@@H]1F [Compound 346, 2-(6-{[(3R,4S)-4-fluoropyrrolidin-3-yl](methyl)amino}[1,3]thiazolo[4,5-c]pyridazin-3-yl)-5-(1H-pyrazol-4-yl)phenol]
  IC50: 100 to 500 nM

## CN(c1nc2nnc(-c3ccc(-c4c[nH]nc4F)cc3O)cc2s1)C1CCCNCC1 (centres unmarked) [Compound 398, 2-{6-[(azepan-4-yl)(methyl)amino][1,3]thiazolo[4,5-c]pyridazin-3-yl)-5-(3-fluoro-1H-pyrazol-4-yl)phenol]
  IC50: ≤ 100 nM

## CN1CCC(N(C)c2nc3nnc(-c4ccc(-c5c[nH]nc5F)cc4O)cc3s2)C1 (centres unmarked) [Compound 391, 5-(3-fluoro-1H-pyrazol-4-yl)-2-{6-[methyl(1-methylpyrrolidin-3-yl)amino][1,3]thiazolo[4,5-c]pyridazin-3-yl]phenol]
  IC50: ≤ 100 nM

## Cc1cn2cc(-c3ccc4nc(N(C)C5CC(C)(C)NC(C)(C)C5)sc4c3)cc(C)c2n1 [Compound 33, 6-(2,8-dimethylimidazo[1,2-a]pyridin-6-yl)-N-methyl-N-(2,2,6,6-tetramethylpiperidin-4-yl)-1,3-benzothiazol-2-amine]
  IC50: ≤ 100 nM

## Cn1cc2cc(-c3cc(F)c4nc(OC5CCNCC5)sc4c3)cc(C#N)c2n1 [Compound 318, 5-{4-fluoro-2-[(piperidin-4-yl)oxy]-1,3-benzothiazol-6-yl}-2-methyl-2H-indazole-7-carbonitrile]
  IC50: ≤ 100 nM

## CC1CC(c2nc3ccc(-c4ccc5nn(C)cc5c4)cc3s2)CC(C)N1 (centres unmarked) [Compound 190, 2-(2,6-dimethylpiperidin-4-yl)-6-(2-methyl-2H-indazol-5-yl)-1,3-benzothiazole]
  IC50: 1000 to 3000 nM

## Cc1cn2nc(-c3cc(F)c4nc(C5CCN(C)CC5)sc4c3)cc(C)c2n1 [Compound 107, 6-[4-fluoro-2-(1-methylpiperidin-4-yl)-1,3-benzothiazol-6-yl]-2,8-dimethylimidazo[1,2-b]pyridazine]
  IC50: ≤ 100 nM
